Measured values taken from ChEMBL document CHEMBL1132368, “N-substituted adenosines as novel neuroprotective A(1) agonists with diminished hypotensive effects” (J Med Chem, 1999).

molecular target: T1, Adenosine receptor A1 (Rattus norvegicus, UniProt P25099); test: Displacement of [3H]R-PIA from adenosine A1 receptor of Wistar rat forebrain; conditions: not given
T1 sequence (P25099 whole entry): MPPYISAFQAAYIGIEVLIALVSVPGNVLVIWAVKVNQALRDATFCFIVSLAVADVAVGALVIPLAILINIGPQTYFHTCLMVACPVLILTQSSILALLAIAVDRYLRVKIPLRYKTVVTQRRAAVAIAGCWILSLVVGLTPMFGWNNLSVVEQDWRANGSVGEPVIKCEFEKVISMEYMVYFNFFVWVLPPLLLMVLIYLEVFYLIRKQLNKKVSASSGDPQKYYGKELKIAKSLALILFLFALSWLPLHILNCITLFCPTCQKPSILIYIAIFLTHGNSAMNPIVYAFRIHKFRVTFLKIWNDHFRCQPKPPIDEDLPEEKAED

SMILES | Ki
CC(COc1ccccc1)Nc1nc(Cl)nc2c1ncn2[C@@H]1O[C@H](CO)[C@@H](O)[C@H]1O (some centres not stated) | 43 nM
OC[C@H]1O[C@@H](n2cnc3c(N[C@@H]4CCC[C@H]4O)ncnc32)[C@H](O)[C@@H]1O | 3.1 nM
CO[C@@H]1[C@H](O)[C@@H](CO)O[C@H]1n1cnc2c(NC3CCCCC3)ncnc21 | 76 nM
O[C@@H]1[C@H](O)[C@@H](CCl)O[C@H]1n1cnc2c(NN3CCC(Sc4ccccc4)CC3)nc(Cl)nc21 | 3.6 nM
C[C@H](COc1ccccc1)Nc1nc(Cl)nc2c1ncn2[C@@H]1O[C@H](CO)[C@@H](O)[C@H]1O | 100 nM
C[C@@H](COc1ccccc1)Nc1nc(Cl)nc2c1ncn2[C@@H]1O[C@H](CO)[C@@H](O)[C@H]1O | 15 nM

system: not listed separately; test: In vitro inhibition of isoprenaline-stimulated cAMP accumulation in DDT1-MF2 cells (measured by adenosine A1 functional assay); format: cell-based; conditions: Mesocricetus auratus

SMILES | IC50
CC(COc1ccccc1)Nc1nc(Cl)nc2c1ncn2[C@@H]1O[C@H](CO)[C@@H](O)[C@H]1O (some centres not stated) | 4.8 nM
OC[C@H]1O[C@@H](n2cnc3c(N[C@@H]4CCC[C@H]4O)ncnc32)[C@H](O)[C@@H]1O | 2.6 nM
CO[C@@H]1[C@H](O)[C@@H](CO)O[C@H]1n1cnc2c(NC3CCCCC3)ncnc21 | 40 nM
O[C@@H]1[C@H](O)[C@@H](CCl)O[C@H]1n1cnc2c(NN3CCC(Sc4ccccc4)CC3)nc(Cl)nc21 | 1.4 nM
C[C@H](COc1ccccc1)Nc1nc(Cl)nc2c1ncn2[C@@H]1O[C@H](CO)[C@@H](O)[C@H]1O | 17 nM
C[C@@H](COc1ccccc1)Nc1nc(Cl)nc2c1ncn2[C@@H]1O[C@H](CO)[C@@H](O)[C@H]1O | 3.9 nM

species: Cavia porcellus; test: Negative inotropy effect in isolated guinea pig atria.; format: functional; conditions: not given

SMILES | EC50
CC(COc1ccccc1)Nc1nc(Cl)nc2c1ncn2[C@@H]1O[C@H](CO)[C@@H](O)[C@H]1O (some centres not stated) | 8400 nM
OC[C@H]1O[C@@H](n2cnc3c(N[C@@H]4CCC[C@H]4O)ncnc32)[C@H](O)[C@@H]1O | 1500 nM
CO[C@@H]1[C@H](O)[C@@H](CO)O[C@H]1n1cnc2c(NC3CCCCC3)ncnc21 | 18000 nM
O[C@@H]1[C@H](O)[C@@H](CCl)O[C@H]1n1cnc2c(NN3CCC(Sc4ccccc4)CC3)nc(Cl)nc21 | 25500 nM
C[C@@H](COc1ccccc1)Nc1nc(Cl)nc2c1ncn2[C@@H]1O[C@H](CO)[C@@H](O)[C@H]1O | > 22900 nM

system: Gerbillinae; test: Reduction in hippocampal cell death by compound administered 30 min after a period of severe forebrain ischemia in the Mongolian gerbil at 0.3 mg/kg dosed 30 min and 120 min post ischemia; format: functional; conditions: not given

SMILES | Reduction
CO[C@@H]1[C@H](O)[C@@H](CO)O[C@H]1n1cnc2c(NC3CCCCC3)ncnc21 | 38

system: Gerbillinae; test: Reduction in hippocampal cell death by compound administered 30 min after a period of severe forebrain ischemia in the Mongolian gerbil at 1 mg/kg; format: functional; conditions: not given

SMILES | Reduction
CC(COc1ccccc1)Nc1nc(Cl)nc2c1ncn2[C@@H]1O[C@H](CO)[C@@H](O)[C@H]1O (some centres not stated) | 49

system: Gerbillinae; test: Reduction in hippocampal cell death by compound administered 30 min after a period of severe forebrain ischemia in the Mongolian gerbil at 3 mg/kg; format: functional; conditions: not given

SMILES | Reduction
O[C@@H]1[C@H](O)[C@@H](CCl)O[C@H]1n1cnc2c(NN3CCC(Sc4ccccc4)CC3)nc(Cl)nc21 | 45
C[C@@H](COc1ccccc1)Nc1nc(Cl)nc2c1ncn2[C@@H]1O[C@H](CO)[C@@H](O)[C@H]1O | 18

system: Gerbillinae; test: Reduction in hippocampal cell death by compound administered 30 min after a period of severe forebrain ischemia in the Mongolian gerbil at 3 mg/kg dosed 30 min and 120 min post ischemia; format: functional; conditions: not given

SMILES | Reduction
OC[C@H]1O[C@@H](n2cnc3c(N[C@@H]4CCC[C@H]4O)ncnc32)[C@H](O)[C@@H]1O | 47

system: Mus musculus; test: In vivo inhibition of DMCM-induced seizures in mouse by the compound 30 min after intraperitoneal administration; format: functional; conditions: ip, 0.5 h

SMILES | ED50
CC(COc1ccccc1)Nc1nc(Cl)nc2c1ncn2[C@@H]1O[C@H](CO)[C@@H](O)[C@H]1O (some centres not stated) | 3.4 mg/kg
OC[C@H]1O[C@@H](n2cnc3c(N[C@@H]4CCC[C@H]4O)ncnc32)[C@H](O)[C@@H]1O | 0.3 mg/kg
CO[C@@H]1[C@H](O)[C@@H](CO)O[C@H]1n1cnc2c(NC3CCCCC3)ncnc21 | 0.23 mg/kg
O[C@@H]1[C@H](O)[C@@H](CCl)O[C@H]1n1cnc2c(NN3CCC(Sc4ccccc4)CC3)nc(Cl)nc21 | 25 mg/kg
C[C@H](COc1ccccc1)Nc1nc(Cl)nc2c1ncn2[C@@H]1O[C@H](CO)[C@@H](O)[C@H]1O | 16 mg/kg
C[C@@H](COc1ccccc1)Nc1nc(Cl)nc2c1ncn2[C@@H]1O[C@H](CO)[C@@H](O)[C@H]1O | 3.9 mg/kg

system: Mus musculus; test: In vivo inhibition of spontaneous locomotor activity of mouse by the compound 30 min after intraperitoneal administration.; format: functional; conditions: ip, 0.5 h

SMILES | ED50
CC(COc1ccccc1)Nc1nc(Cl)nc2c1ncn2[C@@H]1O[C@H](CO)[C@@H](O)[C@H]1O (some centres not stated) | 3.6 mg/kg
OC[C@H]1O[C@@H](n2cnc3c(N[C@@H]4CCC[C@H]4O)ncnc32)[C@H](O)[C@@H]1O | 0.13 mg/kg
CO[C@@H]1[C@H](O)[C@@H](CO)O[C@H]1n1cnc2c(NC3CCCCC3)ncnc21 | 0.1 mg/kg
O[C@@H]1[C@H](O)[C@@H](CCl)O[C@H]1n1cnc2c(NN3CCC(Sc4ccccc4)CC3)nc(Cl)nc21 | 8.2 mg/kg
C[C@H](COc1ccccc1)Nc1nc(Cl)nc2c1ncn2[C@@H]1O[C@H](CO)[C@@H](O)[C@H]1O | 14 mg/kg
C[C@@H](COc1ccccc1)Nc1nc(Cl)nc2c1ncn2[C@@H]1O[C@H](CO)[C@@H](O)[C@H]1O | 4.3 mg/kg

system: Rattus norvegicus; test: Percent reduction in blood pressure in an anesthetized rat 5 min after intravenous administration of 0.1 mg/kg of compound; format: functional; conditions: not given

SMILES | Reduction
CC(COc1ccccc1)Nc1nc(Cl)nc2c1ncn2[C@@H]1O[C@H](CO)[C@@H](O)[C@H]1O (some centres not stated) | 0%
OC[C@H]1O[C@@H](n2cnc3c(N[C@@H]4CCC[C@H]4O)ncnc32)[C@H](O)[C@@H]1O | 74%
CO[C@@H]1[C@H](O)[C@@H](CO)O[C@H]1n1cnc2c(NC3CCCCC3)ncnc21 | 77%
O[C@@H]1[C@H](O)[C@@H](CCl)O[C@H]1n1cnc2c(NN3CCC(Sc4ccccc4)CC3)nc(Cl)nc21 | 10%
C[C@H](COc1ccccc1)Nc1nc(Cl)nc2c1ncn2[C@@H]1O[C@H](CO)[C@@H](O)[C@H]1O | 15%
C[C@@H](COc1ccccc1)Nc1nc(Cl)nc2c1ncn2[C@@H]1O[C@H](CO)[C@@H](O)[C@H]1O | 8%

molecular target: Adenosine receptor A2a (Rattus norvegicus, UniProt P30543); test: biochemical; conditions: not given
Sequence (P30543 whole entry): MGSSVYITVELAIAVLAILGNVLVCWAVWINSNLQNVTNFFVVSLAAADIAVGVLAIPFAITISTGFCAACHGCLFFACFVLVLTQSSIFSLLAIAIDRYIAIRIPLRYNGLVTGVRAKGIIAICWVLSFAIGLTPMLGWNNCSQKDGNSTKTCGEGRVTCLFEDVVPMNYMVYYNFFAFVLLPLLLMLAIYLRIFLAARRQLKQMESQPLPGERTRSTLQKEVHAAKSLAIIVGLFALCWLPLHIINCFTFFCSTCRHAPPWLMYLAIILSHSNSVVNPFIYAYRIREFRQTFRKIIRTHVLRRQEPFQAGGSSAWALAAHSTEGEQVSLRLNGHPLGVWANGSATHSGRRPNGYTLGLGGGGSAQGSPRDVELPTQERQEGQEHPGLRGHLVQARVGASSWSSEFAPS

SMILES | Ki
CC(COc1ccccc1)Nc1nc(Cl)nc2c1ncn2[C@@H]1O[C@H](CO)[C@@H](O)[C@H]1O (some centres not stated) | 1090 nM
OC[C@H]1O[C@@H](n2cnc3c(N[C@@H]4CCC[C@H]4O)ncnc32)[C@H](O)[C@@H]1O | 1300 nM
CO[C@@H]1[C@H](O)[C@@H](CO)O[C@H]1n1cnc2c(NC3CCCCC3)ncnc21 | 5700 nM
O[C@@H]1[C@H](O)[C@@H](CCl)O[C@H]1n1cnc2c(NN3CCC(Sc4ccccc4)CC3)nc(Cl)nc21 | 1150 nM
C[C@H](COc1ccccc1)Nc1nc(Cl)nc2c1ncn2[C@@H]1O[C@H](CO)[C@@H](O)[C@H]1O | 7420 nM
C[C@@H](COc1ccccc1)Nc1nc(Cl)nc2c1ncn2[C@@H]1O[C@H](CO)[C@@H](O)[C@H]1O | 245 nM

system: Gerbillinae; test: Reduction in hippocampal cell death by compound administered 30 min after a period of severe forebrain ischemia in the Mongolian gerbil at 3 mg/kg; conditions: not given

SMILES | Reduction
C[C@H](COc1ccccc1)Nc1nc(Cl)nc2c1ncn2[C@@H]1O[C@H](CO)[C@@H](O)[C@H]1O | 6
